Here are results for four compounds from PMC3914206.

Holding throughout (assay type): binding
Common to all, as to settings: Compound Concentration 10 µM

Assay [1] has as its target T1, panel of 442 kinases (Homo sapiens, UniProt P42336, M1043I).
T1 construct: purchased KINOMEscan
From the text:
(§1) We assessed the selectivity of members of this scaffold using the KINOMEscan methodology across a near comprehensive panel of 442 kinases [[18,27]].

The target in assay [2] is T2, panel of 442 kinases (Homo sapiens, UniProt P42336, E542K).
T2 construct: purchased KINOMEscan
T2 sequence (P42336 whole entry E542K): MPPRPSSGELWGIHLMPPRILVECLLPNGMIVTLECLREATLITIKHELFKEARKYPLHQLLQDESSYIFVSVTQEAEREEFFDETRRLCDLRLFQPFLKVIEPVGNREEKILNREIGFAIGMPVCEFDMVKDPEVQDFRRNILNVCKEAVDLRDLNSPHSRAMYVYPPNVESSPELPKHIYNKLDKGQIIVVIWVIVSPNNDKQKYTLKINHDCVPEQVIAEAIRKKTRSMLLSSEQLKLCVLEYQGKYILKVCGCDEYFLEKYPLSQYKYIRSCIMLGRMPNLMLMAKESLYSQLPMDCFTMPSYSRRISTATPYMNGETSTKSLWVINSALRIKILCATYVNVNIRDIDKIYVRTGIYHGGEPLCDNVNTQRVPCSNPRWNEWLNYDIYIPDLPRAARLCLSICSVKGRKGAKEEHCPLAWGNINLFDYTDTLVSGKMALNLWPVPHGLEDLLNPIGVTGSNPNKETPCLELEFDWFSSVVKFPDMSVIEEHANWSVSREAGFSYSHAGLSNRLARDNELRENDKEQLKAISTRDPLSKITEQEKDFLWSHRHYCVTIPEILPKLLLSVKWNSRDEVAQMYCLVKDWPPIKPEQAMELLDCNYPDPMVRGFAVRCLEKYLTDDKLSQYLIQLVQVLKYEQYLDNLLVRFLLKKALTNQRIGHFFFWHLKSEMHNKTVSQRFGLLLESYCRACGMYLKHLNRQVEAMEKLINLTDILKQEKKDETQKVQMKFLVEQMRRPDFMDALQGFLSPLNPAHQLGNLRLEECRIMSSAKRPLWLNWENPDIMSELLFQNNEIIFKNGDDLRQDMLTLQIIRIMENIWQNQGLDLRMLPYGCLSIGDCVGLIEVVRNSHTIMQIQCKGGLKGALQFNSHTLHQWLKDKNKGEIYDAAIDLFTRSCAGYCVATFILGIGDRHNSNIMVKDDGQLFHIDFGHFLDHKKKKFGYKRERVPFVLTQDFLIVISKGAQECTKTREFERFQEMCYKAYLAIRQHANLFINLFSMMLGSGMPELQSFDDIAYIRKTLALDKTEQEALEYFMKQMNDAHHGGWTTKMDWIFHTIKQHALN
Source text: as §1

In assay [3] the target is T3, panel of 442 kinases (Homo sapiens, UniProt Q14164).
T3 construct: purchased KINOMEscan
T3 sequence (Q14164 1-716): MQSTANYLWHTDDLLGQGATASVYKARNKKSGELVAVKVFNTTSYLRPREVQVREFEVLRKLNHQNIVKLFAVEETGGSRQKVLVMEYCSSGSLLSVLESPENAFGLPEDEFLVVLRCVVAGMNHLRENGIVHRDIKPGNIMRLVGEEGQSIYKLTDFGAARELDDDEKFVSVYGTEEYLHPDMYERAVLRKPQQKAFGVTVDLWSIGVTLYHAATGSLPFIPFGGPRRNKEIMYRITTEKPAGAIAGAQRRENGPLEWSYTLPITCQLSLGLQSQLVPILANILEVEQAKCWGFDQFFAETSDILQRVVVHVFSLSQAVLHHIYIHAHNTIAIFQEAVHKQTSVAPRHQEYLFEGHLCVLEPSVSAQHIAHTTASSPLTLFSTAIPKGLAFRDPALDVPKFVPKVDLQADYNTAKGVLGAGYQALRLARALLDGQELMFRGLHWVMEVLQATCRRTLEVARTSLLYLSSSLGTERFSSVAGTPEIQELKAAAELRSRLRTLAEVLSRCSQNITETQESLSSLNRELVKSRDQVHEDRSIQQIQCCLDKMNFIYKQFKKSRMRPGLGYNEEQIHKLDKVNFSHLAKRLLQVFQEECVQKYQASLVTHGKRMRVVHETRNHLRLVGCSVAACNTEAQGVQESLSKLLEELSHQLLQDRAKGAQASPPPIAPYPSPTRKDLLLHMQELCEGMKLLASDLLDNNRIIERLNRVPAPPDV
Source text: as §1

T1 sequence (P42336 whole entry M1043I): as the sequence (P42336 whole entry E542K) above, with K542E, M1043I counted along it

For the compound `CCOc1cc(C(=O)N2CCC(N3CCN(C)CC3)CC2)ccc1Nc1ncc2c(n1)N(C1CCCC1)c1ccccc1C(=O)N2C` [Compound 26], the “KINOMEscan: PIK3CA(M1043I)” value in assay [1] came out at 92. In assay [2], the “KINOMEscan: PIK3CA(E542K)” value is on record as 100. Moreover, in assay [3], the “KINOMEscan: IKK-epsilon” value was 100.
In the case of `COc1cc(C(=O)N2CCC(N3CCN(C)CC3)CC2)ccc1Nc1ncc2c(n1)N1CCc3cccc(c31)C(=O)N2C` [Compound 24], the “KINOMEscan: PIK3CA(M1043I)” value in assay [1] was found to be 66.
For `COc1cc(C(=O)N2CCC(N3CCN(C)CC3)CC2)ccc1Nc1ncc2c(n1)N(C)c1ccccc1C(=O)N2C` [15 (LRRK2-IN-1)], the “KINOMEscan: PIK3CA(M1043I)” value in assay [1] amounted to 65. Further, the “KINOMEscan: PIK3CA(E542K)” value in assay [2] is 77. The “KINOMEscan: IKK-epsilon” value in assay [3] stood at 96.
The corresponding values for `COc1cc(C(=O)N2CCC(N3CCN(C)CC3)CC2)ccc1Nc1ncc2c(n1)N(C1CCCC1)c1ccccc1C(=O)N2C` [Compound 25, 11-cyclopentyl-2-((2-methoxy-4-(4-(4-methylpiperazin-1-yl)piperidine-1-carbonyl)phenyl)amino)-5-methyl-5H-benzo[e]pyrimido[5,4-b][1,4]diazepin-6(11H)-one] are 93, 98 and 100.
